Assay results reported in PubChem BioAssay AID624167 (Sanford-Burnham Center for Chemical Genomics, 2012).
Activity calls are given as the source filed them.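 The calls were made as follows: active = mean IC50 for reducing PEG3 promoter reporter signal at or below a set limit, with IC50 above the limit in both counter screens; inactive = the rest, including counter screen hits.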

Legend:
PEG-3 [1] = target: PEG-3 (UniProt Q6IN02); experiment: Peg3 promoter luciferase inhibitors, potency, dose response, cell-based, HeLa, CREF/GAPDH counter-screen panel (AID 624167); conditions: HeLa PEG-Prom luciferase reporter, overnight, CREF/GAPDH counter-screens, mean of runs
PEG-3 [2] = experiment: as above; conditions: HeLa PEG-Prom luciferase reporter, overnight, CREF/GAPDH counter-screens
[3] = run 1, dose range 1, individual replicate IC50 per panel
[4] = run 2, dose range 1, individual replicate IC50 per panel

PEG-3 (UniProt Q6IN02), sequence (Q6IN02 whole entry, looked up): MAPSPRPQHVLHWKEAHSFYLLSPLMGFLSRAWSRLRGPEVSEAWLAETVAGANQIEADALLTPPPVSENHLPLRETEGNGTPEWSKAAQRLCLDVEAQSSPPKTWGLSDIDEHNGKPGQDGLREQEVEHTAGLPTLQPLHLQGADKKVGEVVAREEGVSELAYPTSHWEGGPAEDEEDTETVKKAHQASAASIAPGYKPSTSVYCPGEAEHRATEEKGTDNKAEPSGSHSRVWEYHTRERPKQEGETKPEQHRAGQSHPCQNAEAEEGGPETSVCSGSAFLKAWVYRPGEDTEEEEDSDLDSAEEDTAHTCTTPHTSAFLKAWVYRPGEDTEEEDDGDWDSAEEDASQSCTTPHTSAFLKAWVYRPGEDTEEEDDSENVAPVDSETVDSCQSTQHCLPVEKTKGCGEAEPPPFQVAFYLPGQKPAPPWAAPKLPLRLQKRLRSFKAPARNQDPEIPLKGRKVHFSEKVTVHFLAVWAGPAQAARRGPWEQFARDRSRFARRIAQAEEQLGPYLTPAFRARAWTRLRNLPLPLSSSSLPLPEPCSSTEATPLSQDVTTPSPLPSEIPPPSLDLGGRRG

Row | Structure (SMILES) | IC50 (PEG-3 [1]) | IC50 (PEG-3 [2]; [3]) [µM] | IC50 (PEG-3 [2]; [4]) [µM]
1 | COc1ccc(-n2c(/C=C/c3ccc(O)c(OC)c3)nc3ccccc3c2=O)cc1 | 15.8 µM | 15.8 | 15.8
2 | CCn1c(C)cc(C(=O)COC(=O)c2ccccc2[N+](=O)[O-])c1C | 18.8 µM | 35.8 | 1.77
3 | CCN1CCN(c2ncc(C(=O)Nc3cc(Cl)ccc3OC)c3ccccc23)CC1 | inactive | 26.6 | 51.4
4 | COc1ccccc1CN(C)C(=O)c1cc(-c2cc(OC)c(OC)c(OC)c2)nc2ccccc12 | inactive | 19.2 | 40
5 | CCc1ccc2c(c1)Sc1ccccc1CC2N1CCN(C)CC1 (centres undefined) | inactive | 19.7 | 38
6 | CC(C)NC(=O)NC(=O)COC(=O)c1c2c(nc3ccccc13)CCC2 | inactive | 16.5 | 27.8
7 | NC(N)=N/N=C/c1cccc(Cl)c1Cl | 16 µM | 17.4 | 14.5
8 | COc1ccc(CCNC(=O)c2cc3c(=O)n4ccccc4nc3n(C3CCCCC3)c2=N)cc1 | > 100 µM (inactive) | > 100 | > 100
9 | O=Nc1c(O)ccc2cc(S(=O)(=O)O)ccc12 | 11.7 µM | 9.17 | 14.2
10 | Cc1nn(-c2ccccc2Cl)c(Cl)c1/C=N/Nc1nc2ccccc2s1 | < 0.2 µM | < 0.2 | < 0.2
11 | COc1ccc(-c2sc3ccccc3c2-c2ccc(OCCN3CCCCC3)cc2)cc1 | inactive | 20.9 | 20.2
12 | O=C(Nc1cccc(-c2cccc(Cl)c2)c1)C1CCN(C2CCC2)CC1 | 16.9 µM | 18.9 | 14.9
13 | COc1cccc(/C=N/Nc2cc(C)nc(-c3ccccc3O)n2)c1O | 13 µM | 12.5 | 13.6
14 | COc1ccc(-c2cc(-c3ccc(F)cc3)nc(N3CCN(C)CC3)n2)cc1 | inactive | 21.6 | > 100
15 | O=C(CCl)Nc1cccc(-c2cnc3ccccc3n2)c1 | inactive | > 100 | 13.2
16 | O=C(Nc1ccccc1)c1nc[nH]c1C(=O)NCCCNC(=O)c1[nH]cnc1C(=O)Nc1ccccc1 | inactive | 17.2 | > 100
17 | CN(C)S(=O)(=O)c1cccc(NC(=O)CSc2nc3c(cc2C#N)C(=O)CC(C)(C)C3)c1 | inactive | 21.6 | 19.6

Row | Structure (SMILES) | IC50 (PEG-3 [1]) | IC50 (PEG-3 [2]; [3]) [µM] | IC50 (PEG-3 [2]; [4]) [µM]
18 | CN(C)c1ccc(N=Nc2nc3ccccc3n2C)cc1 | inactive | 20.6 | < 100
19 | c1ccc(CN=C(NCc2ccccc2)NCc2ccccc2)cc1 | inactive | 23.4 | 41.9
20 | CCCCN(C)CCNC(=O)c1cc(-c2cccnc2)nc2ccc(S(=O)(=O)N3CCC(C)CC3)cc12 | 12.9 µM | 10.3 | 15.4
21 | Cc1cc(Br)ccc1NC(=O)CN1C(=O)C2C3CC(c4ccccc4)C(C3)C2C1=O (centres undefined) | inactive | 23.9 | 41.9
22 | COc1ccc(N(Cc2cc3cc(OC)ccc3[nH]c2=O)S(=O)(=O)c2ccc(NC(C)=O)cc2)cc1 | 14.4 µM | 17.8 | 11
23 | CN(C)C=NC(=O)c1[nH]c2ccc(Cl)cc2c1-c1ccccc1 | 18.9 µM | 18 | 19.9
24 | CCOc1cc(CNCCCN2CCOCC2)ccc1OCC(=O)Nc1cccc2ccccc12 | 18.7 µM | 21.1 | 16.2
25 | CCCN(CCC)CCCNC(=S)Nc1ccc2nc(N3CCCC3)cc(C)c2c1 | inactive | 27.5 | 19.1
26 | CCc1ccc(O)c(CNCCNCc2cc(CC)ccc2O)c1 | 18.5 µM | 20.6 | 16.4
27 | Cc1cccc(C)c1-n1nnnc1C(c1ccccc1OC(F)(F)F)N1CCC(n2c(=O)[nH]c3ccccc32)CC1 (centres undefined) | 12.7 µM | 20.8 | 4.64
28 | O=C(c1ccccc1)N(C(=O)c1ccccc1)c1ncnc2c1C(c1ccccc1)c1c(ccc3ccccc13)O2 (centres undefined) | inactive | 4.36 | > 100
29 | Cc1ccc(C(=O)N/C(=C\c2ccc(-c3cccc([N+](=O)[O-])c3)o2)C(=O)NCCCN(C)C)cc1 | 17 µM | 18.6 | 15.3
30 | CN(C)CCCN(C(=O)c1ccc(S(=O)(=O)N(C)Cc2ccccc2)cc1)c1nc2cc3c(cc2s1)OCO3 | 16.4 µM | 19.3 | 13.6
31 | COc1ccccc1NC(=S)NC1CCCCCCCCCCC1 | inactive | 31.2 | 42.3
32 | COC(=O)c1cn(NC(=O)c2cc([N+](=O)[O-])ccc2F)c(=O)c2ccccc12 | inactive | 26.1 | 46.5
33 | COc1ccc(-c2cc(C(=O)N(C)Cc3cccc(OC)c3OC)c3ccccc3n2)cc1OC | inactive | 12.7 | 71.2
